From patent US8889724B2, “Tetrazole compounds for reducing uric acid” (Wellstat Therapeutics Corporation, priority 2008, dated 2014)
Several values for one entry are separate records, joined by “and”; a condition that tells them apart may be missing. Identical values can stand only once.

Experiments:
human URAT1 = human URAT1 (Homo sapiens (Human), UniProt Q96S37); assay: URAT1 inhibition assay: [8-14C] urate uptake in hURAT1-HEK cells; assay type: cell-based; details: for inhibition at 10 µM: hURAT1-HEK cells; for IC50: 14C urate uptake in hURAT1-HEK cells
Chain of human URAT1 (Q96S37 whole entry): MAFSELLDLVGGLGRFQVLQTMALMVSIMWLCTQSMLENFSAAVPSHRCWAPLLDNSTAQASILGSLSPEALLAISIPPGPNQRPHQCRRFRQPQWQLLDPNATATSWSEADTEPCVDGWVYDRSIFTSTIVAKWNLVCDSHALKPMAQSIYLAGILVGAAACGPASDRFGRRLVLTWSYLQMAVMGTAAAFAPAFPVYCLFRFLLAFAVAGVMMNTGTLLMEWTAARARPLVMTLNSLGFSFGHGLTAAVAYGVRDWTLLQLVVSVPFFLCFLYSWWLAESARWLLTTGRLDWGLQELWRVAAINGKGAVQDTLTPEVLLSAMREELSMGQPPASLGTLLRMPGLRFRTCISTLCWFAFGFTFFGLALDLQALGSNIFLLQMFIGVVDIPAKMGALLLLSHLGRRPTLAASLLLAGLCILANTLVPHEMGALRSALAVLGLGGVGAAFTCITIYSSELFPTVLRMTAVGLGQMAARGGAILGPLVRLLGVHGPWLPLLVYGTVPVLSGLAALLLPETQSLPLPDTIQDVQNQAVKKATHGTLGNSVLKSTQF
Protocol: URAT1 (Uric Acid Transporter 1) is expressed on the apical membrane in renal tubules. It mediates the re-uptake of uric acid from the urine into the blood.
A suitable assay involves transfection of cells (e g human embryonic kidney cells; “HEK”) with a vector encoding human URAT1, followed by determination of the ability of transfected cells to take up radiolabeled uric acid. The activity of compounds as URAT1 inhibitors is evaluated by their ability to block uric acid uptake by transfected cells.
Test Compounds and Chemicals:
Urate (50-60 mCi/mmol; American Radio Chemicals, Cat. No. ARC0513).
Subcloning of hURAT1 into the Expression Vector:
Plasmid vector pCMV6-XL5 containing hURAT1 cDNA (Cat. No. SC125624) and the expression vector pCMV6-Neo (Cat. No. pCMVNEO) were obtained from OriGene Technologies, Inc. The full-length hURAT1 cDNA was obtained from the vector pCMV6-XL5 and subcloned into the expression vector pCMV6-Neo to create the hURAT1 expression plasmid pCMV6-hURAT1. The sequences were verified by automatic DNA sequencing.
Cell Culture, Transfection of URAT1 Expressing Plasmids and the Establishment of Stably Expressing HEK Cells for hURAT1:
For transfection experiments, cells were plated on 60 mm dishes in 1 ml media per dish. […] Stable transfectants expressing hURAT1 (herein after referred as hURAT1-HEK cells) or cells having only the expression vector pCMV6-Neo (herein after referred as mock-HEK cells) were verified using reverse transcription polymerase chain reaction (RT-PCR) methods.
[8-^14C] Urate Uptake Assay:
Before the uptake assay started, the culture medium was removed and the cells were incubated for 5 min in 0.6 ml of HBSS. After that HBSS was removed, the prepared reaction solutions were added into each well and incubated for 5 min at room temperature. Then the reaction solution was removed, cells were washed twice with 0.6 ml of cold HBSS and lysed with 0.2 ml of 0.1 M NaOH for 20 min. […] Test compounds were dissolved in DMSO and the same concentration of DMSO was added into the wells of mock-HEK cells and the hURAT1-HEK cells that didn't contain test compounds. For each test compound, the uptake assay was performed 2 times and carried out in triplicate. Urate uptake of the cells for each test condition was presented as the average percent inhibition in comparison to the DMSO control. The radioactivity values obtained for the wells that contained DMSO were taken as 100% uptake of the cells. The observed concentration-percent inhibition data were fitted to a sigmoidal concentration-effect model, where: % Inhibition=(100*Conc^Slope)/(IC50^Slope+Conc^Slope)
In this example the compounds were not necessarily tested simultaneously.

[1] = Rat pilot single-dose oral pharmacokinetic study with Compound EC; assay type: in vivo; details: 100 mg/kg single oral gavage; for Compound EC concentration in plasma, individual rats: male Sprague-Dawley rat
Protocol: Rat Pilot Single-Dose Oral Pharmacokinetic Study with Compound EC
Determination of the Plasma Profile of Compound EC Following Single Oral Gavage Administration to Male Rats.
(§1) Test compound was suspended in 1% HPMC using a tissue homogenizer to minimize particles and maximize uniformity of the suspension and stored at 4° C. The formulations was thoroughly mixed just prior to administration. A dose of 100 mg/kg of test compounds or vehicle (1% HPMC) was administered to male Sprague-Dawley rats by single oral gavage. […] The blood samples were centrifuged within 30 minutes of collection under refrigeration (2-8° C.) for 7 minutes at 6000 rpm. Following centrifugation, the plasma were harvested into a single tube for each animal at each time point and immediately frozen at −80° C. until analyzed using LC/MS-MS. Serial plasma concentration time data was subjected to pharmacokinetic analyses using WinNonlin Standard (v2.1, Pharsight Corporation) and Microsoft EXCEL.
1. Rats received single oral gavage of Compound EC, 100 mg/kg, and plasma was collected at certain times.
(§2) 2. Plasma was stored at −80° C. until the day of analysis.
(§3) 3. Samples were thawed on 37° C. bath for 5 min and vortexed at top speed for 10 sec.
(§4) 4. Rat plasma, 0.1 mL was mixed with 0.2 mL Acetonitrile, vortexed 1 min, spun down 14000 rpm, 17000 g, at 4° C., for 25 min.
(§5) 5. Supernatants were filtered through 0.45 micron, 4 mm, PTFE membrane syringe filter (Phenomenex # AF0-3102-52), and 15 microL were injected and resolved on Luna 3 micron, 100 A pore, C8(2), 150×3 mm, reverse phase column (Phenomenex#00F-4248-YO, SN#259151-7) in 50 min linear gradient from 40% to 69% of (0.1% Formic Acid, 89.9% Acetonitrile, 10% Methanol) at 0.25 mL/min, 107 bar, 37° C. column temperature, method 406975M1, AGILENT sequence 0226-09A, Agilent 1100 LC-MS.
(§6) All samples were run in duplicate, 210 nm and 230 nm Absorbances, Negative and Positive ionization spectrograms were recorded.
Step 1. Plasma from “Vehicle” animals (pooled), 0.19 mL, was mixed with 0.01 mL 20× stock of Compound EC in Methanol to make 500 microM, 250 microM, 125 microM, concentrations of Compound EC in plasma.
For example: 190 microL plasma+10 microL of 10 mM Compound EC in methanol=0.2 mL plasma with 500 microM Compound EC.
(§7) Step 2. Samples from step 1 were vortexed for 10 sec at top speed.
(§8) Step 3. 0.4 mL of acetonitrile was added to all samples from Step 2, and all vials were vortexed at top speed for 1 min.
(§9) Step 4. All samples from step 3 were spun down 14000 rpm, 17000 g, at 4° C., for 25 min.
as §5, with “Step 5.” for “5.”, “AF0-3102-52),” for “AF0-3102-52), and”, “temperature. All samples were run in duplicate, 210 nm and 230 nm Absorbances, Negative and Positive ionization spectrograms were recorded.” for “temperature, method 406975M1, AGILENT sequence 0226-09A, Agilent 1100 LC-MS.”

[2] = Rat pilot single-dose oral pharmacokinetic study with Compound EG; assay type: in vivo; details: 100 mg/kg single oral gavage; for Concentration of Compound EG in rat plasma, individual rats: male Sprague-Dawley rat
Protocol: Rat Pilot Single-Dose Oral Pharmacokinetic Study with Compound EG
Determination of the Plasma Profile of Compound EG Following Single Oral Gavage Administration to Male Rats.
as §1
1. Rats received single oral gavage of Compound EG, 100 mg/kg, and plasma was collected at certain times.
as §2, §3, §4, §5, §6
Step 1. Plasma from “Vehicle” animals (pooled), 0.19 mL, was mixed with 0.01 mL 20× stock of Compound EG in Methanol to make 500 microM, 250 microM, 125 microM, . . . , concentrations of Compound EG in plasma.
For example: 190 microL plasma+10 microL of 10 mM Compound EG in methanol=0.2 mL plasma with 500 microM Compound EG.
as §7, §8, §9
as §5, with “Step 5.” for “5.”, “AF0-3102-52),” for “AF0-3102-52), and”, “temperature. All samples were run in duplicate, 210 nm and 230 nm Absorbances, Negative and Positive ionization spectrograms were recorded.” for “temperature, method 406975M1, AGILENT sequence 0226-09A, Agilent 1100 LC-MS.”

[3] = Sprague-Dawley, rat, male rats, plasma
[4] = Sprague-Dawley, rat, male rats, plasma, read-out: AUC0-24
[5] = male, Sprague-Dawley, rat, plasma, 0 HR
[6] = male, Sprague-Dawley, rat, plasma, 0.25 HR
[7] = male, Sprague-Dawley, rat, plasma, 0.5 HR
[8] = male, Sprague-Dawley, rat, plasma, 1 HR
[9] = male, Sprague-Dawley, rat, plasma, 2 HR
[10] = male, Sprague-Dawley, rat, plasma, 4 HR
[11] = male, Sprague-Dawley, rat, plasma, 6 HR
[12] = male, Sprague-Dawley, rat, plasma, 8 HR
[13] = male, Sprague-Dawley, rat, plasma, 24 HR

Structure (SMILES): Fc1cccc(F)c1COc1ccc(Cc2nnn[nH]2)cc1 [BD, 5-(4-(2,6-Difluorobenzyloxy)benzyl)-1H-tetrazole]
- inhibition at 10 µM (human URAT1): 56.6%

Structure (SMILES): Cc1cccc(C)c1COc1cccc(Cc2nnn[nH]2)c1 [Compound EC, 5-(3-(2,6-Dimethylbenzyloxy)benzyl)-1H-tetrazole]
- Cmax [1, 3]: 61000 ng/mL
- AUC(0-t) [1, 4]: 672 µg·h/mL
- Compound EC concentration in plasma, individual rats ([1]; 0.25 HR): 114 µM and 67 µM
- Compound EC concentration in plasma, individual rats ([1]; 0.5 HR): 45 µM and 25 µM
- Compound EC concentration in plasma, individual rats ([1]; 1 HR): 17 µM and 222 µM
- Compound EC concentration in plasma, individual rats ([1]; 2 HR): 384 µM and 29 µM
- Compound EC concentration in plasma, individual rats ([1]; 4 HR): 35 µM and 11 µM
- Compound EC concentration in plasma, individual rats ([1]; 6 HR): 85 µM and 73 µM and 62 µM
- Compound EC concentration in plasma, individual rats ([1]; 8 HR): 107 µM and 262 µM
- Compound EC concentration in plasma, individual rats ([1]; 24 HR): 0 µM
- concentration at 0 h [1, 5]: 0 ng/mL
- concentration at 0.25 h [1, 6]: 27000 ng/mL
- concentration at 0.5 h [1, 7]: 10000 ng/mL
- concentration at 1 h [1, 8]: 35000 ng/mL
- concentration at 2 h [1, 9]: 61000 ng/mL
- concentration at 4 h [1, 10]: 7000 ng/mL
- concentration at 6 h [1, 11]: 22000 ng/mL
- concentration at 8 h [1, 12]: 54000 ng/mL
- concentration at 24 h [1, 13]: 0 ng/mL
- Detection in plasma (in words) ([1]; rat, LC-MS): readily detected
- inhibition at 10 µM (human URAT1): 95.2%
- IC50 (human URAT1): 240 nM

Structure (SMILES): Cc1ccc(Cc2nnn[nH]2)cc1OCc1c(C)cccc1C [Compound EG, 5-(3-(2,6-Dimethylbenzyloxy)-4-methylbenzyl)-1H-tetrazole]
- inhibition at 10 µM (human URAT1): 95.6%
- IC50 (human URAT1): 130 nM
- Cmax [2, 3]: 22000 ng/mL
- AUC(0-t) [2, 4]: 94.9 µg·h/mL
- Concentration of Compound EG in rat plasma, individual rats ([2]; 0.25 HR): 19 µM and 27 µM
- Concentration of Compound EG in rat plasma, individual rats ([2]; 0.5 HR): 29 µM and 18 µM
- Concentration of Compound EG in rat plasma, individual rats ([2]; 1 HR): 101 µM and 42 µM
- Concentration of Compound EG in rat plasma, individual rats ([2]; 2 HR): 25 µM and 50 µM
- Concentration of Compound EG in rat plasma, individual rats ([2]; 4 HR): 14 µM and 23 µM
- Concentration of Compound EG in rat plasma, individual rats ([2]; 6 HR): 10 µM and 17 µM
- Concentration of Compound EG in rat plasma, individual rats ([2]; 8 HR): 5 µM and 19 µM
- Concentration of Compound EG in rat plasma, individual rats ([2]; 24 HR): 2 µM and 0 µM
- concentration at 0 h [2, 5]: 0 ng/mL
- concentration at 0.25 h [2, 6]: 7000 ng/mL
- concentration at 0.5 h [2, 7]: 7000 ng/mL
- concentration at 1 h [2, 8]: 22000 ng/mL
- concentration at 2 h [2, 9]: 12000 ng/mL
- concentration at 4 h [2, 10]: 6000 ng/mL
- concentration at 6 h [2, 11]: 4000 ng/mL
- concentration at 8 h [2, 12]: 4000 ng/mL
- concentration at 24 h [2, 13]: 0 ng/mL
- Detection in plasma (in words) ([2]; rat, LC-MS): readily detected

Structure (SMILES): COc1ccc(Cc2nnn[nH]2)cc1OCc1c(C)cccc1C [ED, 5-(3-(2,6-Dimethylbenzyloxy)-4-methoxybenzyl)-1H-tetrazole]
- inhibition at 10 µM (human URAT1): 96%
- IC50 (human URAT1): 250 nM

Structure (SMILES): Cc1cccc(C)c1COc1cccc(CCc2nnn[nH]2)c1 [EF, 5-(3-(2,6-Dimethylbenzyloxy)phenethyl)-1H-tetrazole]
- inhibition at 10 µM (human URAT1): 92%
- IC50 (human URAT1): 740 nM

Structure (SMILES): Cc1cccc(C)c1COc1cccc(Cc2nnn[nH]2)c1C [EH, 5-(3-(2,6-Dimethylbenzyloxy)-2-methylbenzyl)-1H-tetrazole]
- inhibition at 10 µM (human URAT1): 80%

Structure (SMILES): COc1c(Cc2nnn[nH]2)cccc1OCc1c(C)cccc1C [EI, 5-(3-(2,6-Dimethylbenzyloxy)-2-methoxybenzyl)-1H-tetrazole]
- inhibition at 10 µM (human URAT1): 44%
